Test results as given in ChEMBL document CHEMBL1155285, “3D-QSAR CoMFA/CoMSIA models based on theoretical active conformers of HOE/BAY-793 analogs derived from HIV-1 protease inhibitor complexes” (Eur J Med Chem, 2009).

Biological target: Protease (Human immunodeficiency virus 1, UniProt Q9YQ12)
Assay: Inhibition of HIV1 protease expressed in Escherichia coli K12 assessed as inhibition of enzyme activity

Sequence of Protease (Q9YQ12 whole entry): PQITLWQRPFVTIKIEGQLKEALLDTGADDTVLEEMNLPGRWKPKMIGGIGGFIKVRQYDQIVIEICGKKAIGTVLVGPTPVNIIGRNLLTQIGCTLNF

IC50	SMILES
0.339 nM	COc1ccc(C[C@H](CS(=O)(=O)C(C)(C)C)C(=O)N[C@H](C(=O)N[C@@H](Cc2ccccc2)[C@@H](O)[C@H](O)[C@H](Cc2ccccc2)NC(=O)[C@@H](NC(=O)[C@H](Cc2ccc(OC)cc2)CS(=O)(=O)C(C)(C)C)C(C)C)C(C)C)cc1
2.88 nM	CC(C)[C@H](NC(=O)[C@H](Cc1cccc2ccccc12)CS(=O)(=O)C(C)(C)C)C(=O)N[C@@H](Cc1ccc(O)cc1)[C@@H](O)[C@H](O)[C@H](Cc1ccc(O)cc1)NC(=O)[C@H](NC(=O)[C@H](Cc1cccc2ccccc12)CS(=O)(=O)C(C)(C)C)C(C)C
18.2 nM	COc1ccc(C[C@H](NC(=O)[C@@H](NC(=O)[C@H](Cc2cccc3ccccc23)CS(=O)(=O)C(C)(C)C)C(C)C)[C@@H](O)[C@H](O)[C@H](Cc2ccc(OC)cc2OC)NC(=O)[C@@H](NC(=O)[C@H](Cc2cccc3ccccc23)CS(=O)(=O)C(C)(C)C)C(C)C)c(OC)c1
0.302 nM	CC(O)[C@H](NC(=O)[C@H](Cc1cccc2ccccc12)CS(=O)(=O)C(C)(C)C)C(=O)N[C@@H](Cc1ccccc1)[C@@H](O)[C@H](O)[C@H](Cc1ccccc1)NC(=O)[C@@H](NC(=O)[C@H](Cc1cccc2ccccc12)CS(=O)(=O)C(C)(C)C)C(C)O (stereo partly specified)
0.302 nM	CCC(C)[C@H](NC(=O)[C@H](Cc1cccc2ccccc12)CS(=O)(=O)C(C)(C)C)C(=O)N[C@@H](Cc1ccccc1)[C@@H](O)[C@H](O)[C@H](Cc1ccccc1)NC(=O)[C@@H](NC(=O)[C@H](Cc1cccc2ccccc12)CS(=O)(=O)C(C)(C)C)C(C)CC (stereo partly specified)
0.398 nM	CC(C)[C@H](NC(=O)[C@H](Cc1cccc2ccccc12)CS(=O)(=O)C(C)(C)C)C(=O)N[C@@H](Cc1cccc2c1OCO2)[C@@H](O)[C@H](O)[C@H](Cc1cccc2c1OCO2)NC(=O)[C@@H](NC(=O)[C@H](Cc1cccc2ccccc12)CS(=O)(=O)C(C)(C)C)C(C)C
0.398 nM	CCC[C@H](NC(=O)[C@H](Cc1cccc2ccccc12)CS(=O)(=O)C(C)(C)C)C(=O)N[C@@H](Cc1ccccc1)[C@@H](O)[C@H](O)[C@H](Cc1ccccc1)NC(=O)[C@H](CCC)NC(=O)[C@H](Cc1cccc2ccccc12)CS(=O)(=O)C(C)(C)C
0.501 nM	CC(C)(C)[C@H](NC(=O)[C@H](Cc1cccc2ccccc12)CS(=O)(=O)C(C)(C)C)C(=O)N[C@@H](Cc1ccccc1)[C@@H](O)[C@H](O)[C@H](Cc1ccccc1)NC(=O)[C@@H](NC(=O)[C@H](Cc1cccc2ccccc12)CS(=O)(=O)C(C)(C)C)C(C)(C)C
3.98 nM	CC(C)[C@H](NC(=O)CCS(=O)(=O)c1ccncc1)C(=O)N[C@@H](Cc1ccccc1)[C@@H](O)[C@H](O)[C@H](Cc1ccccc1)NC(=O)[C@@H](NC(=O)CCS(=O)(=O)c1ccncc1)C(C)C
100 nM	CC(C)(C)S(=O)(=O)C[C@@H](Cc1cccc2ccccc12)C(=O)N[C@@H](CC(N)=O)C(=O)N[C@@H](Cc1ccccc1)[C@@H](O)[C@H](O)[C@H](Cc1ccccc1)NC(=O)[C@H](CC(N)=O)NC(=O)[C@H](Cc1cccc2ccccc12)CS(=O)(=O)C(C)(C)C
0.891 nM	CC(C)[C@H](NC(=O)[C@H](Cc1ccccc1)NC(=O)[C@@H](O)C(O)[C@@H](O)C(O)O)C(=O)N[C@@H](Cc1ccccc1)[C@@H](O)[C@H](O)[C@H](Cc1ccccc1)NC(=O)[C@@H](NC(=O)[C@H](Cc1ccccc1)NC(=O)[C@@H](O)[C@@H](O)[C@@H](O)C(O)O)C(C)C (single isomer, unassigned)
0.302 nM	CC(C)(C)S(=O)(=O)C[C@@H](Cc1cccc2ccccc12)C(=O)N[C@H](C(=O)N[C@@H](Cc1ccccc1)[C@@H](O)[C@H](O)[C@H](Cc1ccccc1)NC(=O)[C@@H](NC(=O)[C@H](Cc1cccc2ccccc12)CS(=O)(=O)C(C)(C)C)C1CCCC1)C1CCCC1
339 nM	CC(C)(C)S(=O)(=O)C[C@@H](Cc1cccc2ccccc12)C(=O)N[C@@H](Cc1c[nH]cn1)C(=O)N[C@@H](Cc1ccccc1)[C@@H](O)[C@H](O)[C@H](Cc1ccccc1)NC(=O)[C@H](Cc1c[nH]cn1)NC(=O)[C@H](Cc1cccc2ccccc12)CS(=O)(=O)C(C)(C)C
2 nM	CC(C)[C@H](NC(=O)OCc1ccccc1)C(=O)N[C@@H](Cc1ccccc1)[C@@H](O)[C@H](O)[C@H](Cc1ccccc1)NC(=O)[C@@H](NC(=O)OCc1ccccc1)C(C)C
0.741 nM	CC(C)(C)S(=O)(=O)C[C@@H](Cc1cccc2ccccc12)C(=O)N[C@@H](CCC(=O)O)C(=O)N[C@@H](Cc1ccccc1)[C@@H](O)[C@H](O)[C@H](Cc1ccccc1)NC(=O)[C@H](CCC(=O)O)NC(=O)[C@H](Cc1cccc2ccccc12)CS(=O)(=O)C(C)(C)C
1.29 nM	CC(C)[C@H](NC(=O)OCc1cccnc1)C(=O)N[C@@H](Cc1ccccc1)[C@@H](O)[C@H](O)[C@H](Cc1ccccc1)NC(=O)[C@@H](NC(=O)OCc1cccnc1)C(C)C
38 nM	CC(C)[C@H](NC(=O)COc1cccc2ccccc12)C(=O)N[C@@H](Cc1ccccc1)[C@@H](O)[C@H](O)[C@H](Cc1ccccc1)NC(=O)[C@@H](NC(=O)COc1cccc2ccccc12)C(C)C
0.302 nM	CC(C)[C@H](NC(=O)[C@H](Cc1cccc2ccccc12)CS(=O)(=O)C(C)(C)C)C(=O)N[C@@H](Cc1ccccc1)[C@@H](O)[C@H](O)[C@H](Cc1ccccc1)NC(=O)[C@@H](NC(=O)[C@H](Cc1cccc2ccccc12)CS(=O)(=O)C(C)(C)C)C(C)C
15.1 nM	CC(C)[C@H](NC(=O)N(C)Cc1ccccn1)C(=O)N[C@@H](Cc1ccccc1)C(O)C(O)[C@H](Cc1ccccc1)NC(=O)[C@@H](NC(=O)N(C)Cc1ccccn1)C(C)C (single isomer, unassigned) [A-76928]
1.7 nM	CC(C)(C)S(=O)(=O)C[C@@H](Cc1cccc2ccccc12)C(=O)N[C@H](C(=O)N[C@@H](Cc1ccccc1)[C@@H](O)[C@H](O)[C@H](Cc1ccccc1)NC(=O)[C@@H](NC(=O)[C@H](Cc1cccc2ccccc12)CS(=O)(=O)C(C)(C)C)C1CCCCC1)C1CCCCC1
0.794 nM	CC(C)[C@H](NC(=O)[C@H](Cc1ccncc1)CS(=O)(=O)C(C)(C)C)C(=O)N[C@@H](Cc1ccccc1)[C@@H](O)[C@H](O)[C@H](Cc1ccccc1)NC(=O)[C@@H](NC(=O)[C@H](Cc1ccncc1)CS(=O)(=O)C(C)(C)C)C(C)C
0.794 nM	CC(C)[C@H](NC(=O)[C@H](Cc1cccc2ccccc12)NS(C)(=O)=O)C(=O)N[C@@H](Cc1ccccc1)[C@@H](O)[C@H](O)[C@H](Cc1ccccc1)NC(=O)[C@@H](NC(=O)[C@H](Cc1cccc2ccccc12)NS(C)(=O)=O)C(C)C

SMILES	IC50
CC(C)[C@H](NC(=O)[C@H](Cc1cccc2ccccc12)CS(=O)(=O)C(C)(C)C)C(=O)N[C@@H](CCc1ccccc1)[C@@H](O)[C@H](O)[C@H](CCc1ccccc1)NC(=O)[C@@H](NC(=O)[C@H](Cc1cccc2ccccc12)CS(=O)(=O)C(C)(C)C)C(C)C	363 nM
CC(C)[C@H](NC(=O)[C@@H](N)Cc1ccccc1)C(=O)N[C@@H](Cc1ccccc1)[C@@H](O)[C@H](O)[C@H](Cc1ccccc1)NC(=O)[C@@H](NC(=O)[C@@H](N)Cc1ccccc1)C(C)C	0.851 nM
CC(C)[C@H](NC(=O)[C@H](Cc1ccccc1)CS(=O)(=O)C(C)(C)C)C(=O)N[C@@H](Cc1ccccc1)[C@@H](O)[C@H](O)[C@H](Cc1ccccc1)NC(=O)[C@@H](NC(=O)[C@H](Cc1ccccc1)CS(=O)(=O)C(C)(C)C)C(C)C	3.24 nM
CC(C)[C@H](NC(=O)CCS(=O)(=O)C(C)(C)C)C(=O)N[C@@H](Cc1ccccc1)[C@@H](O)[C@H](O)[C@H](Cc1ccccc1)NC(=O)[C@@H](NC(=O)CCS(=O)(=O)C(C)(C)C)C(C)C	3.98 nM
CC(C)[C@H](NC(=O)[C@H](Cc1cccc2ccccc12)CS(=O)(=O)C(C)(C)C)C(=O)N[C@@H](CCc1ccncc1)[C@@H](O)[C@H](O)[C@H](CCc1ccncc1)NC(=O)[C@@H](NC(=O)[C@H](Cc1cccc2ccccc12)CS(=O)(=O)C(C)(C)C)C(C)C	141 nM
CCCCC[C@H](NC(=O)[C@@H](NC(=O)[C@H](Cc1cccc2ccccc12)CS(=O)(=O)C(C)(C)C)C(C)C)[C@@H](O)[C@H](O)[C@@H](CCCCC)NC(=O)[C@H](NC(=O)[C@H](Cc1cccc2ccccc12)CS(=O)(=O)C(C)(C)C)C(C)C	1 nM
CC(C)[C@H](NC(=O)[C@H](Cc1cccc2ccccc12)CS(=O)(=O)C(C)(C)C)C(=O)NC[C@@H](O)[C@H](O)CNC(=O)[C@@H](NC(=O)[C@H](Cc1cccc2ccccc12)CS(=O)(=O)C(C)(C)C)C(C)C	2.19 nM
CC(C)[C@H](NC(=O)[C@@H](O)Cc1ccccc1)C(=O)N[C@@H](Cc1ccccc1)[C@@H](O)[C@H](O)[C@H](Cc1ccccc1)NC(=O)[C@@H](NC(=O)[C@@H](O)Cc1ccccc1)C(C)C	21.9 nM
CC(C)[C@H](NC(=O)[C@@H](CC(=O)O)Cc1ccccc1)C(=O)N[C@@H](Cc1ccccc1)[C@@H](O)[C@H](O)[C@H](Cc1ccccc1)NC(=O)[C@@H](NC(=O)[C@@H](CC(=O)O)Cc1ccccc1)C(C)C	1.41 nM
